Data reported in paper PMC7562719, “Discovery of a CNS penetrant small molecule SMN2 splicing modulator with improved tolerability for spinal muscular atrophy” (Scientific Reports, 2020).

How the values were obtained:
Type in all cases: cell-based, human
GALC mRNA = experiment: qPCR of GALC transcripts in GM03813 fibroblasts; settings: for Selectivity GALC /FL-SMN2: EC50 of GALC divided by EC1.5× of FL-SMN2; for EC50: Homo sapiens, Fibroblast, GM03813 fibroblasts, 24 h, 50% total GALC mRNA reduction, 95% CI in brackets
Protocol: (§1) GM03813 fibroblasts, GM24468-derived MNs, NRK-49F, MDCK, CV-1, or NCMDF cells were plated at a density of 0.5 or 1.5 × 10^4, 4 × 10^4, 5 × 10^3, 5 × 10^3, 8 × 10^3, or 6 × 10^3 cells/well on 96-well plates, respectively. After approximately 6 h, the medium was added with the same volume of culture medium containing each compound at the concentration of 0.06, 0.2, 0.6, 0.2, and 6 µM. The final concentration of DMSO was adjusted to 0.1% in culture condition.
(§2) All cells were treated with above compounds for 24 h and washed once with Dulbecco’s Phosphate-Buffered Saline without Ca and Mg [D-PBS (–)] (Wako or Nakarai Tesque). In case of using GM03813 or GM24468-derived MNs, cell lysis and reverse transcription were carried out using SuperPrep Cell Lysis & RT Kit for qPCR in accordance with manufacturer’s recommendations (Toyobo, Japan). qPCR was performed using THUNDERBIRD Probe qPCR Mix (Toyobo). The final concentrations of primers and probes were adjusted to 0.4 µM and 0.15 µM, respectively (Supplementary Table 1). Cycle conditions were as follows; 95 °C for 1 min; followed by 40 cycles of denaturation at 95 °C for 15 s; annealing and elongation at 60 °C for 1 min in the ViiA7 RT-PCR system (Thermo Fisher Scientific). The copy numbers of each target were normalized to those of GAPDH.

HTT mRNA = experiment: qPCR of HTT transcripts in GM03813 fibroblasts; settings: for Selectivity HTT /FL-SMN2: EC50 of HTT divided by EC1.5× of FL-SMN2; for EC50: Homo sapiens, Fibroblast, GM03813 fibroblasts, 24 h, 50% total HTT mRNA reduction, 95% CI in brackets
Protocol: as §1, §2
In order to elucidate splicing pattern of cryptic GALC and HTT transcripts, GM03813 cells were seeded at 5 or 15 × 10^3 cells/well in 96-well plates and incubated with TEC-1 or SMN-C3 (0.03, 0.1, 0.3, 0.1, 1 or 3 µM) for 6 h under final concentration of 200 µg/ml CHX. For FOXM1, GM03813 fibroblasts were plated at 1.5 × 10^4 cells/well in 96-well plate and incubated with TEC-1, SMN-C3 or risdiplam (0.03, 0.1, 0.3 and 1 µM) for 24 h.
GM03813 fibroblasts and GM24468-derived MNs were seeded at 1.5 × 10^4 and 4 × 10^4 cells/well in 96-well plates and were treated with TEC-1 or SMN-C3 for 72 h at the concentration of 0.01, 0.03, 0.1, 0.3, 1, or 3 µM. After 72 h exposure of compound, GM24468 derived MNs and GM03813 fibroblasts were washed once with D-PBS (-), lysed with RIPA buffer (Wako) containing cOmplete (Sigma-Aldrich) and PhosSTOP (Sigma-Aldrich). The lysates were spun at 15,000 rpm for 15 min at 4 °C, and the supernatants were collected. The protein concentration was quantified with BCA kit (Wako). The lysates, adjusted to have the same protein amount, were mixed with NuPAGE LDS sample buffer containing DTT and heated at 95 °C for 5 min. Except for HTT detection, each sample (2 µg total protein/lane) was loaded Perfect NT Gel 7.5–15% gel (DRC, Japan) and run at 150 V for 60–70 min with Tris/glycine/SDS running buffer (BIO-RAD, USA). The proteins were transferred from the gel to Immobilon-P PVDF Membrane (Millipore, USA) with a transfer solution comprising 10% methanol and 1 × Novex Tris-glycine transfer buffer at 25 V for 180–240 min using Criterion blotter (BIO-RAD). In the case of HTT detection, each sample (2 µg total protein/lane) was loaded to Perfect NT Gel 7.5–15% gel and run at 150 V for 60–70 min with NuPAGE Tris–Acetate SDS Running Buffer. The proteins were transferred with a transfer solution comprising 10% methanol and 1 × Novex Tris-glycine transfer buffer at 25 V for 960 min using Criterion blotter. The membranes were blocked with Pierce Protein free T20 blocking reagent for 1 h and subsequently incubated with primary antibodies diluted with Can Get Signal Solution 1 (Toyobo) at room temperature for 1 h. Anti-SMN monoclonal antibody (MoAb)[15] […]

SMN2 splicing = experiment: qPCR of SMN transcripts in motor neurons derived from SMA patient iPSCs (GM24468); settings: iPSC-derived motor neurons (GM24468), 24 h
Protocol: GM24468 cells were differentiated to motor neurons (MNs) via a motor neuron progenitor (MNP) as previously reported. Briefly described, GM24468 were treated with a chemically defined neural medium, including DMEM/F12, Neurobasal medium at 1:1, 0.5% N2, 0.1% B27, 0.1 mM ascorbic acid (Sigma Aldrich, USA), 1 × GlutaMax, and 1 × penicillin/streptomycin. 3 µM CHIR99021 (Wako), 2 µM DMH1 (Sigma Aldrich) and 2 µM SB431542 (Wako) were added in the medium. The culture medium was changed every other day. GM24468 maintained under this condition for 6 days were induced into neuroepithelial progenitors (NEPs). NEPs were then dissociated and split with dispase (Stemcell technologies) and neural medium containing 0.1 µM RA (Sigma Aldrich), 0.5 µM Purmorphamine (Pur) (Merck, USA), 1 µM CHIR99021, 2 µM DMH1 and 2 µM SB431542. The medium was changed every other day. NEPs maintained under this condition for 6 days differentiated into OLIG2^+ MNPs. The OLIG2^+ MNPs were expanded with the same medium containing 1 µM CHIR99021, 2 µM DMH1, 2 µM SB431542, 0.1 µM RA, and 0.5 µM Pur, and split once a week. To induce MNs differentiation, OLIG2^+ MNPs cultured in suspension in the above neural medium with 0.5 µM RA and 0.1 µM Pur. The medium was changed every other day. OLIG2^+ MNPs under this condition for 6 days differentiated into MNX1^+ MNs. […]

Row | SMILES | Selectivity GALC /FL-SMN2 (GALC mRNA) | EC50 (GALC mRNA) [µM] | Selectivity HTT /FL-SMN2 (HTT mRNA) | EC50 (HTT mRNA) [µM] | SMN2 splicing in motor neurons (SMN2 splicing; similar effects to TEC-1) | inclusion of the HTT cryptic exon or reduction of HTT at the mRNA and full-length protein levels (HTT mRNA; GM03813 cells) | concentration showing clear ability to modulate SMN2 splicing (SMN2 splicing) [nM]
1 | CCN1CCC(c2cc(C)c3nc(-c4cc5c(C)nc(C)cn5n4)cc(=O)n3c2)CC1 [SMN-C3, reference compound] | 4 | 0.459 | 4 | 0.547 | modulates SMN2 splicing | – | –
2 | Cc1cn2nc(-c3nc4ccc(N5CCN(C)CC5)cc4c(=O)[nH]3)cc2c(C)n1 [TEC-1, 2-(4,6-dimethylpyrazolo[1,5-a]pyrazin-2-yl)-6-(4-methylpiperazin-1-yl)quinazolin-4(3H)-one] | > 61 | > 3 | > 61 | > 3 | – | did not substantially impact | 30
